Patent publication US20240269104A1, “METHOD FOR TREATING PARKINSON'S DISEASE” (Olatec Therapeutics, Inc., priority 2021, published 2024)

Legend:
[1] = tested on: white blood cells, lymphocytes, monocytes, and granulocytes; experiment: peripheral blood cell counts after MPTP-acute administration; assay type: in vivo, mice; settings: 200 mg/kg, day seven after MPTP-acute
Method: (§1) Seven days after MPTP-acute administration, peripheral blood and spleen were isolated from each mouse, and hematological changes in the peripheral blood and cytokine production in the spleen were evaluated. […] White blood cells, lymphocytes, monocytes, and granulocytes were measured from the peripheral blood using a HemaTrue cell counter (Heska, Loveland, CO). Spleens were isolated and mechanically passed through a 70 μm cell strainer (ThermoFisher) in PBS. Cells were plated in a 96-well plate at a concentration of 200,000 cells/well in RPMI medium (Coring, New York, NY) with 10% FBS. After that, cells were stimulated with LPS at 1 μg/ml and 5 μg/ml. RPMI medium was used as control. After 72 hours, supernatant was isolated to measure the levels of IL-6. Cells were lysed with RIPA buffer (ThermoFisher) supplemented with protease inhibitor (ThermoFisher) to measure IL-1α levels. In both cases, 5-6 mice per group were used.

[2] = tested on: dopaminergic neurons; experiment: tyrosine hydroxylase (TH) immunostaining of the nigrostriatal pathway after MPTP; assay type: in vivo, mice; settings: 200 mg/kg for 7 days; seven days after MPTP-acute
Method: To evaluate the effect of dapansutrile on dopaminergic neurons, mice were subjected to MPTP acute administration. Seven days after, when the levels of dopaminergic neurons are lower, the nigrostriatal pathway was evaluated by tyrosine hydroxylase (TH) immunostaining to assess the viability of dopaminergic neurons. Mice were perfused with 4% paraformaldehyde (Sigma-Aldrich) in PBS. Brains were removed and immersed in the same perfusion buffer overnight and then cryoprotected with 30% sucrose in 0.1M PBS at 4° C. After dehydration, samples were embedded in paraffin molds for sectioning. Coronal brain sections (4 μm thick) containing the St and SNpc were obtained and transferred to glass microscope slides. After antigen retrieval, slides were incubated with primary anti-TH antibody (1:2000, Abcam, Cambridge, UK) for 30 minutes at room temperature. TH antibody binding was detected using an anti-rabbit HRP-conjugated secondary polymer, followed by chromogenic visualization with diaminobenzidine (DAB, Cell Signaling). Hematoxylin counterstain was used to visualize nuclei. Processing of the samples was performed by Inotiv Boulder (Boulder, CO). Dopaminergic immunoreactivity in the St was calculated by measuring the integrated density by NIH ImageJ software. Stereological counting in the SNpc was performed by manual quantification of TH-positive neurons. Three sections per mice were used. Five mice were used for the sham+saline group, and seven mice were used for the MPTP group.

[3] = tested on: TREM2; experiment: TREM2 immunoblotting in the striatum after MPTP-acute administration; assay type: in vivo, mice; settings: 200 mg/kg once each day; day 4 after MPTP-acute
Method: In this example, we measured the levels of […] (TREM2) after dapansutrile treatment. TREM2 may be a potential target for treating PD. For TREM2, mice were sacrificed at day 4 after MPTP-acute administration. The St was excised, and proteins were extracted and quantified as described in Example 9. 30 μg of protein per sample were resolved in a Mini-PROTEAN TGX 4-20% gradient gel (Bio-Rad, Hercules, CA) in 0.1% SDS running buffer (Bio-Rad). The gel was transferred to a […] nitrocellulose membrane (GE Healthcare, Chicago, IL). Membranes were blocked with 5% blocking buffer (Bio-Rad) in TBS 0.1% (v/v) Tween solution for one hour at room temperature. Samples were incubated overnight with primary antibody for mouse TREM2 (1:1000, Cell Signaling, Danvers, MA). Peroxidase-conjugated secondary antibody (Jackson ImmunoResearch, Philadelphia, PA) and chemiluminescence were used to detect the protein concentration. Conjugated antibody against β-actin (Santa Cruz Biotechnology, Dallas, TX) was used to normalize protein concentrations. Protein bands for monomeric and oligomeric forms of each individual mice were quantified using NIH ImageJ software. Four mice per group were used.

[4] = brain levels of dapansutrile after fortified feed pellets; assay type: in vivo, mice; settings: oral
Method: Mice were treated with dapansutrile by ad libitum consumption of dapansutrile-fortified feed pellets (7.5 g/kg) for 21 days. Control mice received a matching unfortified diet without dapansutrile. Mice were monitored during the study for any changes in physiological parameters, including irregular weight gain or loss as well as changes in body temperature. On day 21, mice were sacrificed, and brains were isolated. Dapansutrile measurements in the whole brain homogenates were performed at Syneos Health (Princeton, NJ). Five mice per group were assessed. […] The ability of dapansutrile to cross BBB even when delivered orally provides a potential advance for the treatment of chronic patients like PD.

[5] = tested on: IL-6; experiment: IL-6 in brain homogenates by ELISA after MPTP; assay type: in vivo, mice; settings: 200 mg/kg once each day; seven days after MPTP-acute
Source text: (§2) It has been reported that administration of MPTP induces the assembly of NLPR3 inflammasome in the brain. Mice were sacrificed after anesthesia by cervical dislocation at 4 and 7 days after MPTP administration. Brains were collected, and the striatum (St) and ventral midbrain (VM) areas of both hemispheres were excised and frozen in liquid nitrogen. Samples were homogenized in RIPA buffer (Thermo Fisher, Waltham, MA) supplemented with protease inhibitor (Thermo Fisher) using a TissueRuptor (Qiagen, Germantown, MD). Protein concentration was determined using a BCA Protein Assay Kit (Thermo Fisher) according to manufacturer's instructions. Samples were diluted to 2 mg/ml in the same extraction buffer.
(§3) Levels of IL-1β, IL-18, IL-6, and IL-17A from brain homogenates were measured by ELISA DuoSet kit (R&D Systems, Minneapolis, MN). ELISA kit for IL-1β detects 92-95% of the 17 kDa form and only 8-5% of the precursor form of this cytokine. 96-well plates (ThermoFisher Scientific) were coated with capture antibody. Samples were incubated for two hours at room temperature. Detection antibodies and streptavidin-HRP were added. TMB ELISA (cBioscience, San Diego, CA) was used as substrate solution. Results were measured in a microplate reader (Bio-Tek, Santa Clara, CA). Final values were normalized by the protein concentration of each sample. 4-5 mice per group were used for each cytokine.

[6] = tested on: IL-17A; experiment: IL-17A in brain homogenates by ELISA after MPTP; assay type: in vivo, mice; settings: 200 mg/kg once each day; seven days after MPTP-acute; MPTP+saline 58 pg/μg
Source text: as §2, §3

[7] = tested on: IL-6; experiment: IL-6 in LPS-stimulated cultured splenocytes from MPTP-injected mice; assay type: in vivo; settings: mice treated 200 mg/kg for seven days; splenocytes cultured with LPS, supernatant
Method: as §1

[8] = fortified feed pellets, 21 days

CS(=O)(=O)CCC#N [dapansutrile, 3-methanesulfonylpropionitrile]
increase in number of circulating granulocytes [1]: 33%
increase in number of circulating lymphocytes [1]: 24%
TH-positive fibers and neurons versus control mice [2]: no significant changes against control mice were observed
density of TH-positive fibers in the striatum versus MPTP mice treated with saline [2]: increase
increase of TH-positive neurons in the SNpc [2]: 3 times
levels of 35 kDa-glycosylated form of TREM2 in the striatum [3]: no changes
levels of nonglycosylated form of TREM2 (28 kDa) in the striatum [3]: significantly increased, reaching basal condition
concentration at 21 days ([4]; mouse, brain (whole brain homogenate), fortified feed pellets 7.5 g/kg ad libitum, whole brain homogenates, read-out: dapansutrile level in the brain): 47000 ng/g
brain level relative to concentration required to inhibit the NLRP3 assembly [4, 8]: at least 30 times
crossing of the blood-brain barrier [4, 8]: readily crosses the BBB
levels of IL-6 in the ventral midbrain (VM) [5]: No effects were detected
reduction of levels of IL-6 in the striatum (St) [5]: 26%
levels of IL-17A in the ventral midbrain (VM) after treatment [6]: 46 pg/µg
IL-6 production by splenocytes [7]: restoring the effects of MPTP
